One compound from patent US6645726B1, “Canine growth hormone secretagogue receptor” (Merck & Co., Inc., priority 1998, dated 2003) can be followed below.

pIC50: −log10 of the molar value.

In assay [1] the target is T1, native canine pituitary GHSR (Canis lupus familiaris, UniProt A5HKU8).
T1 construct: native canine pituitary GHSR; from tissue; host or cells: canine pituitary
Kind of assay: [35S]-MK-677 competition binding, native canine pituitary GHSR. Conditions: comparison value.

For assay [2], the target named is T2, cloned canine GHSR (Canis lupus familiaris, UniProt A5HKU8).
T2 construct: full-length open reading frame placed in the mammalian expression vector pcDNA-3; expressed in transfected cells; host or cells: COS-7 or HEK-293 (crude membranes)
T2 sequence (A5HKU8 1-349): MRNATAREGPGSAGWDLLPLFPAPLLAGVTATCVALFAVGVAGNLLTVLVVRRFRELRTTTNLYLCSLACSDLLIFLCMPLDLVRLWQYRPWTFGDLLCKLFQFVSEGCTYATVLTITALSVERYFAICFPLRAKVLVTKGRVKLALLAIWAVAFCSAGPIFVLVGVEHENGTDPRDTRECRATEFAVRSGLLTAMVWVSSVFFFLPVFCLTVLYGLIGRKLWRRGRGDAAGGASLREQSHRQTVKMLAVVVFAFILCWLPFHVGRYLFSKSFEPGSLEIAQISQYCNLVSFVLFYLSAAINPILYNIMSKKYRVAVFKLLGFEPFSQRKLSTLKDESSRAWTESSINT
Briefly: [35S]-MK-677 competition binding, cloned canine GHSR membranes. Conditions: competition with 35S-MK-677, crude membranes of transfected COS-7 or HEK-293 cells, 20° C., 1 hr. The procedure: Expression of the canine -GHSR was monitored using a [^35S]-MK-677 binding assay conducted on cells transfected with a canine GHSR expression plasmid (full-length open reading frame placed in the mammalian expression vector pcDNA-3). Mammalian cells (COS-7, HEK-293) were transfected with GHSR expression plasmids using Lipofectamine (GIBCO-BRL; Hawley-Nelson, 1993, Focus 15:73). Transfections were performed in 60 mm dishes on 80% confluent cells (approximately 4×10^5cells) with 8 μg of Lipofectamine and 32 μg of GHSR plasmid DNA.
Binding of ^35S-MK-677 to crude membranes prepared from COS-7 or HEK-293 cells transfected with GHSR expression plasmids was conducted. Crude cell membranes from COS-7 transfectants were prepared on ice, 48 hrs post-transfection. Each 60 mm dish was washed twice with 3 ml of PBS, once with 1 ml homogenization buffer (50 mM Tris-HCl (pH 7.4), 5 mM MgCl2, 2.5 mM EDTA, 30 μg/ml bacitracin). 0.5 ml of homogenization buffer was added to each dish, cells were removed by scraping and then homogenized using a POLYTRON device (Brinkmann, Syosset, N.Y.; 3 bursts of 10 seconds at setting 4). […] After application of the membrane suspension to the filter, the filters were washed 3 times with 3 ml each of ice cold 50 mM Tris-HCl (pH 7.4), 10 mM MgCl2, 2.5 mM-EDTA, and 0.015% Triton X-100, and the bound radioactivity on the filters was quantitated by scintillation counting.

T1 sequence (A5HKU8 1-349): as above

A word on the pIC50: it is the negative decadic logarithm of the IC50, by convention in mol/L. High values mean a low IC50, low ones a high IC50. Consider `CC(C)(N)C(=O)N[C@H](COCc1ccccc1)C(=O)N1CCC2(CC1)CN(S(C)(=O)=O)c1ccccc12` [MK-677], for which the results for the pIC50 in assay [1] and in assay [2] were 9.00 and 8.66, respectively.
